Experimental data taken from US20240109891A1, “NOVEL SUBSTITUTED TRICYCLIC AZA-HETEROCYCLES AS SOS1 INHIBITORS” (Viva Star Biosciences (Suzhou) Co., Ltd., priority 2021, published 2024).

Experiments:
[1] = molecular target: T1, KRAS G12D and SOS1 proteins (Homo sapiens, UniProt Q07889); assay: KRAS-G12D/SOS1 binding assay (HTRF); conditions: Tag1-SOS1 / Tag2-KRAS G12D, 10 μM GTP
T1 construct: purchased Cisbio 63ADK000CB17PEG
T1 sequence (Q07889 1-1333): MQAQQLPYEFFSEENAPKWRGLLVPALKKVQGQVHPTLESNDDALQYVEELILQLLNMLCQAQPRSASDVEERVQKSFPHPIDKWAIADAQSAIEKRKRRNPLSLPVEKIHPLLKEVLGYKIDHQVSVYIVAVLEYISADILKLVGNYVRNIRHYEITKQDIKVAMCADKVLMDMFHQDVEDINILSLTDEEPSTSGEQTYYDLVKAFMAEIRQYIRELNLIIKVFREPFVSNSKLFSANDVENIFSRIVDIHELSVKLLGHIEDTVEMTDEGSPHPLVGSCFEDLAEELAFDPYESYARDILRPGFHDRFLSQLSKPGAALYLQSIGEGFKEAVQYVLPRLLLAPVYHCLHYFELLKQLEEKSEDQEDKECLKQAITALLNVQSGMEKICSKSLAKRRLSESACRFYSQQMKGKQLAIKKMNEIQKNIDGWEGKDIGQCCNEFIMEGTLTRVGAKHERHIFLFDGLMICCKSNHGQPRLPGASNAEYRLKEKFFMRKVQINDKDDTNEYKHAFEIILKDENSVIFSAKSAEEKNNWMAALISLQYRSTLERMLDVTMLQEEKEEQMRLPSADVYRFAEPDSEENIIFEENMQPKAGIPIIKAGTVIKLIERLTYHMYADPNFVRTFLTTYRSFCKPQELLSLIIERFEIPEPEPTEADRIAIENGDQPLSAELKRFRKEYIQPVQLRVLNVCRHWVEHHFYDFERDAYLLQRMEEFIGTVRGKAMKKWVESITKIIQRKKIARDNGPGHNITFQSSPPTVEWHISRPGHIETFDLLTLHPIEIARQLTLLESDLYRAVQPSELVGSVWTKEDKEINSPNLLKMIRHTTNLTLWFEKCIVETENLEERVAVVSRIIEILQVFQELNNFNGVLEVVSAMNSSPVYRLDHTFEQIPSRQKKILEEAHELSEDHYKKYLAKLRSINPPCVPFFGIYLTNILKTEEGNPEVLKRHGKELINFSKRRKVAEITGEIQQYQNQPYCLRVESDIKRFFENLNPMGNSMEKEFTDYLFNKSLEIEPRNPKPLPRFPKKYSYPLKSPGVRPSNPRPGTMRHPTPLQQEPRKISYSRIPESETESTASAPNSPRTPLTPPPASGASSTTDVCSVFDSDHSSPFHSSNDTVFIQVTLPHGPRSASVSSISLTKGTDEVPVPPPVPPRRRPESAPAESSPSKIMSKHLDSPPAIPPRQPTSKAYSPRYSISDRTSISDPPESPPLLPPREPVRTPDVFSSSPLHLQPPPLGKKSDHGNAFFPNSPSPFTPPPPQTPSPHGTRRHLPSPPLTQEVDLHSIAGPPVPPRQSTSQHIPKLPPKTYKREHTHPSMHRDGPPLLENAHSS
Protocol: (§1) KRAS-WT (or G12C/G12D/G12V)/SOS1 Binding Assay
(§2) Low IC50 values are indicative of high potency of the SOS1 inhibitor compounds in this assay setting.
(§3) The KRAS-WT (or G12C/G12D/G12V)/SOS1 binding assay is performed using an assay kit (Cisbio, Cat #63ADK000CB15PEG or 63ADK000CB16PEG/63ADK000CB17PEG/63ADK000CB18PEG) according to the procedure recommended by the manufacturer. • 1) Thaw and prepare the working solution of Tag1-SOS1 protein and Tag2-KRAS-WT (or G12C/G12D/G12V) protein with final concentration of 10 μM GTP (Sigma, Cat #V900868). • 2) Thaw and prepare the working solution of anti-Tag1-Tb^3+ anti-Tag2-XL665. • 3) Dispense 2 μL of serially diluted compound, 4 μL of Tag1-SOS1 protein and 4 μL of Tag2-KRAS-WT (or G12C/G12D/G12V) protein with GTP into a ProxiPlate-384 Plus, white 384-shallow well microplate (PerkinElmer, Cat #6008280). • 4) Incubate the plate for 15 minutes at room temperature. • 5) Dispense 10 μL of pre-mixed anti-Tag1-Tb^3+ and anti-Tag2-XL665 into the plate. • 6) Seal the plate and incubate for 2 hours at room temperature. • 7) Remove the plate sealer and read on PHERAstar FS (BMG LABTECH, PHERAstar FS). • 8) Calculate the ratio of the acceptor and donor emission signals for each individual well using the following equation.
(§4) [formula] • 9) IC50 values are fitted and calculated by HTRF signal values and log of compound concentrations to nonlinear regression [Log (inhibitor) vs. Response−Variable Slope (four parameters)] using the GraphPad Prism 8.0.

[2] = molecular target: T2, KRAS-WT and SOS1 proteins (Homo sapiens, UniProt Q07889); assay: KRAS-WT/SOS1 binding assay (HTRF); conditions: Tag1-SOS1 / Tag2-KRAS-WT, 10 μM GTP, read-out: Activity Data in Kras: SOS1 Assay, Wild Type
T2 construct: purchased Cisbio 63ADK000CB15PEG
T2 sequence (Q07889 1-1333): T1 sequence (Q07889 1-1333)
Protocol: as §1, §2, §3, §4

Row | Structure (SMILES) | IC50 [1] [nM] | IC50 [2] [nM]
1 | COc1cc2c(cc1O[C@H]1CCOC1)c(N[C@H](C)c1cccc(C(F)(F)F)c1)nc1nccn12 [Example 58, 8-methoxy-7-(((S)-tetrahydrofuran-3-yl)oxy)-N—((R)-1-(3-(trifluoromethyl)phenyl)ethyl)imidazo[1,2-a]quinazolin-5-amine] | < 100 | < 100
2 | Cc1nc(N[C@H](C)c2cccc(C(F)(F)CO)c2)c2cc(C3CCNCC3)c3nncn3c2n1 [Example 14, (R)-2,2-difluoro-2-(3-(1-((2-methyl-6-(piperidin-4-yl)-[1,2,4]triazolo[4′,3′:1,6]pyrido[2,3-d]pyrimidin-4-yl)amino)ethyl)phenyl)ethan-1-ol] | < 100 | < 100
3 | C[C@@H](Nc1nc2ccnn2c2cc(=O)n(C3(C)CC3)cc12)c1cccc(C(F)(F)F)n1 [Example 65, (R)-7-(1-methylcyclopropyl)-5-((1-(6-(trifluoromethyl)pyridin-2-yl)ethyl)amino)pyrazolo[1,5-a]pyrido[3,4-e]pyrimidin-8(7H)-one] | 500 to 5000 | 500 to 5000
4 | COCC(=O)N1CCC(c2cc3c(N[C@H](C)c4cccc(C(F)(F)CO)c4)nc(C)nc3n3cnnc23)CC1 [Example 11, (R)-1-(4-(4-((1-(3-(1,1-difluoro-2-hydroxyethyl)phenyl)ethyl)amino)-2-methyl-[1,2,4]triazolo[4′,3′:1,6]pyrido[2,3-d]pyrimidin-6-yl)piperidin-1-yl)-2-methoxyethan-1-one] | < 100 | < 100
5 | Cc1nc(N[C@H](C)c2cccc(C(F)(F)CO)c2)c2cc(O[C@H]3CCOC3)c3nncn3c2n1 [Example 20, 2,2-difluoro-2-(3-((R)-1-((2-methyl-6-(((S)-tetrahydrofuran-3-yl)oxy)-[1,2,4]triazolo[4′,3′:1,6]pyrido[2,3-d]pyrimidin-4-yl)amino)ethyl)phenyl)ethan-1-ol] | 100 to 500 | < 100
6 | Cc1nc(N[C@H](C)c2cccc(C(F)(F)CO)c2)c2cc(C3CCN(C)CC3)c3c(cnn3C)c2n1 [Example 30, (R)-2-(3-(1-((2,7-dimethyl-6-(1-methylpiperidin-4-y1)-7H-pyrazolo[3,4-h]quinazolin-4-yl)amino)ethyl)phenyl)-2,2-difluoroethan-1-ol] | < 100 | < 100
7 | COc1cc2c(cc1O[C@H]1CCOC1)c(N[C@H](C)c1cccc(C(F)(F)F)c1)nc1ccnn12 [Example 54, 8-methoxy-7-[(3 S)-oxolan-3-yloxy]-N-[(1R)-1-[3-(trifluoromethyl)phenyl]ethyl]pyrazolo[1,5-α]quinazolin-5-amine] | 500 to 5000 | 500 to 5000
8 | COc1cc2c(cc1C1CCN(S(C)(=O)=O)CC1)c(N[C@H](C)c1cccc3c1CCC3(F)F)nc1ccnn12 [Example 53, (R)-N-(1-(1,1-difluoro-2,3-dihydro-1H-inden-4-yl)ethyl)-8-methoxy-7-(1-(methylsulfonyl)piperidin-4-yl)pyrazolo[1,5-a]quinazolin-5-amine] | 100 to 500 | 100 to 500
9 | Cc1nc(N[C@H](C)c2cccc(C(F)(F)CO)c2)c2cc(OC3CC(F)(F)C3)c3c(cnn3C)c2n1 [Example 39, (R)-2-(3-(1-((6-(3,3-difluorocyclobutoxy)-2,7-dimethyl-7H-pyrazolo[3,4-h]quinazolin-4-yl)amino)ethyl)phenyl)-2,2-difluoroethan-1-ol] | 100 to 500 | 100 to 500
10 | COCC(F)(F)c1cccc([C@@H](C)Nc2nc(C)nc3c2cc(-c2ccc(=O)n(C)c2)c2c3cnn2C)c1 [Example 31, (R)-5-(4-((1-(3-(1,1-difluoro-2-methoxyethyl)phenyl)ethyl)amino)-2,7-dimethyl-7H-pyrazolo[3,4-h]quinazolin-6-yl)-1-methylpyridin-2(1H)-one] | < 100 | < 100
11 | Cc1nc(N[C@H](C)c2cccc(C(F)(F)CO)c2)c2cc(-c3ccc(=O)n(C)c3)c3c(cnn3C)c2n1 [Example 24, (R)-5-(4-((1-(3-(1,1-difluoro-2-hydroxyethyl)phenyl)ethyl)amino)-2,7-dimethyl-7H-pyrazolo[3,4-h]quinazolin-6-yl)-1-methylpyridin-2(1H)-one] | < 100 | < 100
